IC50 and EC50 data for 30 molecules are collected here from patent US10246456B2, “IRAK4 inhibiting agents” (BIOGEN MA INC., priority 2014, dated 2019).

By pIC50 is commonly meant the negative decadic logarithm of the IC50, by convention in mol/L. A lower pIC50 goes with a large IC50. One may read the pEC50 as the negative decadic logarithm of the EC50, by convention in mol/L.

pEC50, pIC50: −log10 of the molar value.

The target of one test is IRAK4 (Homo sapiens (Human), UniProt Q9NWZ3). The experiment in a line: IRAK-4 AlphaScreen biochemical kinase assay. As to conditions: 1 nM IRAK4, 1 mM ATP, 3.5 h at RT. An outline of the steps:
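AlphaScreen read-out: streptavidin beads bind the biotinylated peptide and protein A beads bind the anti-phosphothreonine antibody, so energy transfer reports phosphorylation of the peptide. The kinase is human IRAK-4.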

The next test relates to IL-6 in A549 cells. The experiment in a line: Cell-based IL-6 ELISA assay in IL-1beta stimulated A549 cells. As to conditions: 2 ng/ml human IL-1beta overnight. In outline:
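A549 cells (2.5×10^4/well, DMEM/10% FBS) pretreated 30 min at 37 C with compound, 10-point serial dilution from 10 uM, then stimulated overnight with 2 ng/ml human IL-1beta. Secreted IL-6 in supernatant quantified by human IL-6 ELISA.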
For orientation: An ELISA detects its analyte on a solid surface through an enzyme-linked reagent.

Chain of IRAK4 (Q9NWZ3 whole entry, species assumed): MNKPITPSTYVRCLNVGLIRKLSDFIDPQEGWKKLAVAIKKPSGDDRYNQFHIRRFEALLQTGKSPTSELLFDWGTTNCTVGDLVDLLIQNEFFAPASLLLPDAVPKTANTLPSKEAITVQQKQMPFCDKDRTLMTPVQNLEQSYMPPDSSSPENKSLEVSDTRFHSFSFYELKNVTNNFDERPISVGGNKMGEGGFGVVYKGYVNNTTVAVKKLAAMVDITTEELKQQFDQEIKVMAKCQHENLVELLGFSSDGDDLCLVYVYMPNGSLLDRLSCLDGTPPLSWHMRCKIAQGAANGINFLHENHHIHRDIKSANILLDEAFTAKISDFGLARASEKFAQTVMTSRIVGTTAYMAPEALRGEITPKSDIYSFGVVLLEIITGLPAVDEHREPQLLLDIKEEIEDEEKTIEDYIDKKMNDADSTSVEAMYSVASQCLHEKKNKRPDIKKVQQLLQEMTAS

Molecule `CC[C@H](N)c1cccc(-c2ccc3cnn(-c4nccc(C(F)F)n4)c3c2)n1` [Example 512, (S)-1-(6-(1-(4-(difluoromethyl)pyrimidin-2-yl)-1H-indazol-6-yl)pyridin-2-yl)propan-1-amine] showed a pIC50 at IRAK4 greater than 7.00. The molecule further had a pEC50 in the test with IL-6 in A549 cells of no less than 6.00.

Regarding `CCOc1cc(-c2cccc([C@@H](N)CCCOC)n2)cc2c1cnn2-c1cccc(CO)n1` [Example 513, (S)-(6-(6-(6-(1-amino-4-methoxybutyl)pyridin-2-yl)-4-ethoxy-1H-indazol-1-yl)pyridin-2-yl)methanol], the pIC50 on IRAK4 was greater than 7.00. This molecule also gave a pEC50 in the test with IL-6 in A549 cells of no less than 6.00.

On IRAK4, `CCC[C@H](N)c1cccc(-c2cc(OCC(F)(F)F)c3cnn(-c4cccc(CO)n4)c3c2)n1` [Example 514, (S)-(6-(6-(6-(1-aminobutyl)pyridin-2-yl)-4-(2,2,2-trifluoroethoxy)-1H-indazol-1-yl)pyridin-2-yl)methanol] gave a pIC50 greater than 7.00. The molecule further showed a pEC50 with IL-6 in A549 cells of no less than 6.00.

Molecule `CCC[C@H](N)c1cccc(-c2cc(C3CCN(C(C)=O)CC3)c3cnn(-c4cccc(CO)n4)c3c2)n1` [Example 515, (S)-1-(4-(6-(6-(1-aminobutyl)pyridin-2-yl)-1-(6-(hydroxymethyl)pyridin-2-yl)-1H-indazol-4-yl)piperidin-1-yl)ethanone] had a pIC50 against IRAK4 greater than 7.00. The pEC50 with IL-6 in A549 cells was no less than 6.00.

In turn, `CCC[C@H](N)c1cccc(-c2cc(CN(C)C)c3cnn(-c4cccc(CO)n4)c3c2)n1` [Example 517, (S)-(6-(6-(6-(1-aminobutyl)pyridin-2-yl)-4-((dimethylamino)methyl)-1H-indazol-1-yl)pyridin-2-yl)methanol] gave a pIC50 on IRAK4 greater than 7.00. Moreover, the pEC50 in the test with IL-6 in A549 cells was no less than 6.00.

Consider `CCC[C@H](N)c1cccc(-c2ccc3cnn(-c4cccc(CF)n4)c3c2)n1` [Example 518, (S)-1-(6-(1-(6-(fluoromethyl)pyridin-2-yl)-1H-indazol-6-yl)pyridin-2-yl)butan-1-amine], for which the pIC50 against IRAK4 is greater than 7.00. Further, in the test on IL-6 in A549 cells, the pEC50 was no less than 6.00.

`CSCC(N)c1cccc(-c2ccc3cnn(-c4cccc(CO)n4)c3c2)n1` (stereo not drawn) [Example 520, (6-(6-(6-(1-amino-2-(methylthio)ethyl)pyridin-2-yl)-1H-indazol-1-yl)pyridin-2-yl)methanol] gave a pIC50 against IRAK4 greater than 7.00. For the same molecule, in the test on IL-6 in A549 cells, the pEC50 was no less than 6.00.

On to `CC(C)C[C@H](N)c1cccc(-c2ccc3cnn(-c4cccc(CO)n4)c3c2)n1` [Example 521, (S)-(6-(6-(6-(1-amino-3-methylbutyl)pyridin-2-yl)-1H-indazol-1-yl)pyridin-2-yl)methanol], for which the pIC50 against IRAK4 is greater than 7.00. The pEC50 with IL-6 in A549 cells is no less than 6.00.

On to `CCC[C@H](N)c1cccc(-c2cc(OCCC3CC3)c3cnn(-c4cccc(CO)n4)c3c2)n1` [Example 522, (S)-(6-(6-(6-(1-aminobutyl)pyridin-2-yl)-4-(2-cyclopropylethoxy)-1H-indazol-1-yl)pyridin-2-yl)methanol], for which the pIC50 at IRAK4 is greater than 7.00. In the test on IL-6 in A549 cells, this molecule gave a pEC50 of no less than 6.00.

For the molecule `CCC[C@H](N)c1cccc(-c2cc(OC(F)(F)F)c3cnn(-c4cccc(CO)n4)c3c2)n1` [Example 523, (S)-(6-(6-(6-(1-aminobutyl)pyridin-2-yl)-4-(trifluoromethoxy)-1H-indazol-1-yl)pyridin-2-yl)methanol], the pIC50 against IRAK4 is greater than 7.00. This molecule showed a pEC50 in the test on IL-6 in A549 cells of no less than 6.00.

`C[C@H](N)c1cccc(-c2cc(C3=NCCO3)c3cnn(-c4cccc(CO)n4)c3c2)n1` [Example 524, (S)-(6-(6-(6-(1-aminoethyl)pyridin-2-yl)-4-(4,5-dihydrooxazol-2-yl)-1H-indazol-1-yl)pyridin-2-yl)methanol] gave a pIC50 on IRAK4 greater than 7.00. Moreover, in the test with IL-6 in A549 cells, the pEC50 is no less than 6.00.

Molecule `CCC[C@H](N)c1cccc(-c2cc(OC(F)F)c3cnn(-c4cncc(CO)n4)c3c2)n1` [Example 526, (S)-(6-(6-(6-(1-aminobutyl)pyridin-2-yl)-4-(difluoromethoxy)-1H-indazol-1-yl)pyrazin-2-yl)methanol] had a pIC50 against IRAK4 greater than 7.00. In the test with IL-6 in A549 cells, this molecule gave a pEC50 of no less than 6.00.

With `CCC[C@H](NC)c1cccc(-c2ccc3cnn(-c4cccc(CO)n4)c3c2)n1` [Example 527, (S)-(6-(6-(6-(1-(methylamino)butyl)pyridin-2-yl)-1H-indazol-1-yl)pyridin-2-yl)methanol], the pIC50 at IRAK4 is greater than 7.00. In addition, the pEC50 with IL-6 in A549 cells is no less than 6.00.

At IRAK4, `CC1COC(c2cc(-c3cccc([C@H](C)N)n3)cc3c2cnn3-c2cccc(CO)n2)=N1` (stereo partly drawn) [Example 528, (6-(6-(6-((S)-1-aminoethyl)pyridin-2-yl)-4-(4-methyl-4,5-dihydrooxazol-2-yl)-1H-indazol-1-yl)pyridin-2-yl)methanol] showed a pIC50 greater than 7.00. In addition, the pEC50 in the test on IL-6 in A549 cells was no less than 6.00.

As to `NC(CO)c1cccc(-c2ccc3cnn(-c4cccc(CO)n4)c3c2)n1` (stereo not drawn) [Example 530, 2-amino-2-(6-(1-(6-(hydroxymethyl)pyridin-2-yl)-1H-indazol-6-yl)pyridin-2-yl)ethanol], at IRAK4, the pIC50 is 6.00 to 7.00. The same molecule had a pEC50 in the test on IL-6 in A549 cells of no less than 6.00.

`CCC[C@H](N)c1cccc(-c2ccc3cnn(-c4nccc(C(F)(F)F)n4)c3c2)n1` [Example 531, (S)-1-(6-(1-(4-(trifluoromethyl)pyrimidin-2-yl)-1H-indazol-6-yl)pyridin-2-yl)butan-1-amine] showed a pIC50 on IRAK4 greater than 7.00. This molecule gave a pEC50 in the test on IL-6 in A549 cells of no less than 6.00.

For the molecule `CS(=O)(=O)CC(N)c1cccc(-c2ccc3cnn(-c4cccc(CO)n4)c3c2)n1` (stereo not drawn) [Example 532, (6-(6-(6-(1-amino-2-(methylsulfonyl)ethyl)pyridin-2-yl)-1H-indazol-1-yl)pyridin-2-yl)methanol], on IRAK4, the pIC50 was greater than 7.00. This molecule showed a negative-log EC50 (pEC50) with IL-6 in A549 cells of no less than 6.00.

As for `CC[C@H](N)c1cccc(-c2cc(C#N)c3cnn(-c4cccc(CO)n4)c3c2)n1` [Example 533, (S)-6-(6-(1-aminopropyl)pyridin-2-yl)-1-(6-(hydroxymethyl)pyridin-2-yl)-1H-indazole-4-carbonitrile], the pIC50 against IRAK4 is greater than 7.00. Moreover, in the test with IL-6 in A549 cells, the pEC50 is no less than 6.00.

`NC(CC1CC1)c1cccc(-c2ccc3cnn(-c4cccc(CO)n4)c3c2)n1` (stereo not drawn) [Example 535, (6-(6-(6-(1-amino-2-cyclopropylethyl)pyridin-2-yl)-1H-indazol-1-yl)pyridin-2-yl)methanol] gave a pIC50 on IRAK4 greater than 7.00. The pEC50 with IL-6 in A549 cells is no less than 6.00.

The molecule `Cc1cccc(-n2ncc3c(-c4cnco4)cc(-c4cccc(C(C)N)n4)cc32)n1` (stereo not drawn) [Example 536, 1-(6-(1-(6-methylpyridin-2-yl)-4-(oxazol-5-yl)-1H-indazol-6-yl)pyridin-2-yl)ethanamine] had a pIC50 against IRAK4 greater than 7.00. The molecule also showed a pEC50 in the test on IL-6 in A549 cells of no less than 6.00.

Molecule `C[C@H](N)c1cccc(-c2cc(C#N)c3cnn(-c4cccc(CO)n4)c3c2)n1` [Example 537, (S)-6-(6-(1-aminoethyl)pyridin-2-yl)-1-(6-(hydroxymethyl)pyridin-2-yl)-1H-indazole-4-carbonitrile] gave a pIC50 against IRAK4 greater than 7.00. The molecule further showed a pEC50 in the test with IL-6 in A549 cells of no less than 6.00.

`NC(c1cccc(-c2ccc3cnn(-c4cccc(CO)n4)c3c2)n1)C1CC1` (stereo not drawn) [Example 538, (6-(6-(6-(amino(cyclopropyl)methyl)pyridin-2-yl)-1H-indazol-1-yl)pyridin-2-yl)methanol] showed a pIC50 on IRAK4 greater than 7.00. Also, in the test on IL-6 in A549 cells, the pEC50 is no less than 6.00.

On to `CC[C@H](N)c1cccc(-c2ccc3cnn(-c4cccc(C(F)F)n4)c3c2)n1` [Example 539, (S)-1-(6-(1-(6-(difluoromethyl)pyridin-2-yl)-1H-indazol-6-yl)pyridin-2-yl)propan-1-amine], for which the negative logarithm of the IC50 (pIC50) at IRAK4 is greater than 7.00. This molecule showed a pEC50 in the test with IL-6 in A549 cells of 5.00 to 6.00.

`C[C@H](N)c1cccc(-c2cc(C(=O)NC(C)(C)CO)c3cnn(-c4cccc(CO)n4)c3c2)n1` [Example 540, (S)-6-(6-(1-aminoethyl)pyridin-2-yl)-N-(1-hydroxy-2-methylpropan-2-yl)-1-(6-(hydroxymethyl)pyridin-2-yl)-1H-indazole-4-carboxamide] gave a pIC50 against IRAK4 of 6.00 to 7.00. The same molecule gave a pEC50 in the test on IL-6 in A549 cells of 5.00 to 6.00.

At IRAK4, `C[C@H](N)c1cccc(-c2ccc3cnn(-c4nccc(C(F)F)n4)c3c2)n1` [Example 541, (S)-1-(6-(1-(4-(difluoromethyl)pyrimidin-2-yl)-1H-indazol-6-yl)pyridin-2-yl)ethanamine] gave a pIC50 of 6.00 to 7.00. This molecule also had a pEC50 in the test on IL-6 in A549 cells of 5.00 to 6.00.

As to `Cc1cccc(-n2ncc3c(-c4ncco4)cc(-c4cccc(C(C)N)n4)cc32)n1` (stereo not drawn) [Example 542, 1-(6-(1-(6-methylpyridin-2-yl)-4-(oxazol-2-yl)-1H-indazol-6-yl)pyridin-2-yl)ethanamine], at IRAK4, the pIC50 was greater than 7.00. The same molecule gave a pEC50 with IL-6 in A549 cells of 5.00 to 6.00.

`COCC(N)c1cccc(-c2ccc3cnn(-c4cccc(CO)n4)c3c2)n1` (stereo not drawn) [Example 543, (6-(6-(6-(1-amino-2-methoxyethyl)pyridin-2-yl)-1H-indazol-1-yl)pyridin-2-yl)methanol] had a pIC50 against IRAK4 greater than 7.00. In addition, the pEC50 in the test on IL-6 in A549 cells is 5.00 to 6.00.

On IRAK4, `CN(C)C(=O)C(N)c1cccc(-c2ccc3cnn(-c4cccc(CO)n4)c3c2)n1` (stereo not drawn) [Example 544, 2-amino-2-(6-(1-(6-(hydroxymethyl)pyridin-2-yl)-1H-indazol-6-yl)pyridin-2-yl)-N,N-dimethylacetamide] had a pIC50 greater than 7.00. This molecule had a pEC50 in the test on IL-6 in A549 cells of 5.00 to 6.00.

At IRAK4, `C[C@H](N)c1cccc(-c2ccc3cnn(-c4ccc(F)c(CO)n4)c3c2)n1` [Example 545, (S)-(6-(6-(6-(1-aminoethyl)pyridin-2-yl)-1H-indazol-1-yl)-3-fluoropyridin-2-yl)methanol] gave a pIC50 greater than 7.00. In the test with IL-6 in A549 cells, this molecule had a pEC50 of 5.00 to 6.00.

At IRAK4, `CCC[C@H](N)c1cccc(-c2ccc3cnn(-c4cncc(C(F)(F)F)n4)c3c2)n1` [Example 546, (S)-1-(6-(1-(6-(trifluoromethyl)pyrazin-2-yl)-1H-indazol-6-yl)pyridin-2-yl)butan-1-amine] had a pIC50 greater than 7.00. The pEC50 in the test on IL-6 in A549 cells is 5.00 to 6.00.
